Experimental data as given in ChEMBL document CHEMBL1811847, “Initial efforts toward the optimization of arylomycins for antibiotic activity” (2011).
Converted amounts (≈) assume the structure as drawn.

How the values were obtained:
Format in all cases: functional
[1] = test system: Staphylococcus epidermidis; test: Antibacterial activity against wild-type Staphylococcus epidermidis RP62A after 24 hrs by CLSI broth microdilution method
Staphylococcus aureus [2] = test: Antibacterial activity against Staphylococcus aureus NCTC 8325 harboring lepB P29S mutant after 24 hrs by CLSI broth microdilution method; details: NCTC 8325, 24 h
Escherichia coli [3] = test: Antibacterial activity against Escherichia coli MG1655 harboring lepB P84L mutant after 24 hrs by CLSI broth microdilution method; details: MG1655, 24 h
Pseudomonas aeruginosa [4] = test: Antibacterial activity against Pseudomonas aeruginosa PAO1 harboring lepB P84L mutant after 24 hrs by CLSI broth microdilution method; details: PAO1, 24 h
[5] = test system: Staphylococcus epidermidis; test: Antibacterial activity against Staphylococcus epidermidis RP62A harboring spsB S29P mutant after 24 hrs by CLSI broth microdilution method
Staphylococcus aureus [6] = test: Antibacterial activity against wild-type Staphylococcus aureus NCTC 8325 after 24 hrs by CLSI broth microdilution method; details: NCTC 8325, 24 h
Escherichia coli [7] = test: Antibacterial activity against Escherichia coli MG1655 after 24 hrs by CLSI broth microdilution method; details: MG1655, 24 h
Pseudomonas aeruginosa [8] = test: Antibacterial activity against wild-type Pseudomonas aeruginosa PAO1 after 24 hrs by CLSI broth microdilution method; details: PAO1, 24 h
Staphylococcus aureus [9] = test: Antibacterial activity against methicillin-resistant Staphylococcus aureus isolate USA300

SMILES	MIC [1]	MIC (Staphylococcus aureus [2])	MIC (Escherichia coli [3])	MIC (Pseudomonas aeruginosa [4])	MIC [5]	MIC (Staphylococcus aureus [6])	MIC (Escherichia coli [7])	MIC (Pseudomonas aeruginosa [8])	MIC (Staphylococcus aureus [9])
CCCCCCCCc1ccc(C(=O)N(C)[C@H](CO)C(=O)N[C@H](C)C(=O)NCC(=O)N(C)[C@@H]2C(=O)N[C@@H](C)C(=O)N[C@H](C(=O)O)Cc3ccc(O)c(c3)-c3cc2ccc3O)cc1	1 µg/mL (≈ 1.16 µM)	8 µg/mL (≈ 9.31 µM)	8 µg/mL (≈ 9.31 µM)	64 µg/mL (≈ 74.5 µM)	> 64 µg/mL	> 64 µg/mL	> 64 µg/mL	> 64 µg/mL	
CCCCCCCCCCCCCCCC(=O)N[C@@H](CO)C(=O)N[C@@H](C)C(=O)NCC(=O)N(C)[C@@H]1C(=O)N[C@@H](C)C(=O)N[C@H](C(=O)O)Cc2ccc(O)c(c2)-c2cc1ccc2O						> 64 µg/mL	> 64 µg/mL	> 64 µg/mL	
CCCCCCCCCC(=O)N(C)[C@H](CO)C(=O)N[C@H](C)C(=O)NCC(=O)N(C)[C@@H]1C(=O)N[C@@H](C)C(=O)N[C@H](C(=O)O)Cc2ccc(O)c(c2)-c2cc1ccc2O						> 64 µg/mL	> 64 µg/mL	> 64 µg/mL	
CCCCCCCCCCCCCCCC(=O)N1C[C@@H](O)C[C@H]1C(=O)N[C@@H](C)C(=O)NCC(=O)N(C)[C@@H]1C(=O)N[C@@H](C)C(=O)N[C@H](C(=O)O)Cc2ccc(O)c(c2)-c2cc1ccc2O	4 µg/mL (≈ 4.48 µM)	4 µg/mL (≈ 4.48 µM)			8 µg/mL (≈ 8.96 µM)	> 64 µg/mL	> 64 µg/mL	> 64 µg/mL	
CCCCCCCCCCCCCCCC(=O)N(C)[C@@H](CO)C(=O)NCCC(C)C(=O)NCC(=O)N(C)[C@@H]1C(=O)N[C@@H](C)C(=O)N[C@H](C(=O)O)Cc2ccc(O)c(c2)-c2cc1ccc2O (mixture of isomers)	8 µg/mL	8 µg/mL			8 µg/mL	> 64 µg/mL	> 64 µg/mL	> 64 µg/mL	
CCCCCCCCCCCCCCCCCC(=O)N(C)[C@H](CO)C(=O)N[C@H](C)C(=O)NCC(=O)N(C)[C@@H]1C(=O)N[C@@H](C)C(=O)N[C@H](C(=O)O)Cc2ccc(O)c(c2)-c2cc1ccc2O						> 64 µg/mL	> 64 µg/mL	> 64 µg/mL	
CCCCCCCCCCCCCCCC(=O)N(C)[C@@H](CO)CCC(=O)N[C@@H](C)C(=O)NCC(=O)N(C)[C@@H]1C(=O)N[C@@H](C)C(=O)N[C@H](C(=O)O)Cc2ccc(O)c(c2)-c2cc1ccc2O	8 µg/mL (≈ 8.8 µM)	4 µg/mL (≈ 4.4 µM)			16 µg/mL (≈ 17.6 µM)	16 µg/mL (≈ 17.6 µM)	> 64 µg/mL	> 64 µg/mL	
CCCCCCc1ccc(C(=O)N(C)[C@H](CO)C(=O)N[C@H](C)C(=O)NCC(=O)N(C)[C@@H]2C(=O)N[C@@H](C)C(=O)N[C@H](C(=O)O)Cc3ccc(O)c(c3)-c3cc2ccc3O)cc1	8 µg/mL (≈ 9.63 µM)	64 µg/mL (≈ 77 µM)	32 µg/mL (≈ 38.5 µM)		> 64 µg/mL	> 64 µg/mL	> 64 µg/mL	> 64 µg/mL	
CCCCCCCCCCCC(=O)N(C)[C@H](CO)C(=O)N[C@H](C)C(=O)NCC(=O)N(C)[C@@H]1C(=O)N[C@@H](C)C(=O)N[C@H](C(=O)O)Cc2ccc(O)c(c2)-c2cc1ccc2O					> 64 µg/mL	> 64 µg/mL	> 64 µg/mL	> 64 µg/mL	
CCCCc1ccc(-c2ccc(C(=O)N(C)[C@H](CO)C(=O)N[C@H](C)C(=O)NCC(=O)N(C)[C@@H]3C(=O)N[C@@H](C)C(=O)N[C@H](C(=O)O)Cc4ccc(O)c(c4)-c4cc3ccc4O)cc2)cc1	1 µg/mL (≈ 1.14 µM)	16 µg/mL (≈ 18.2 µM)	4 µg/mL (≈ 4.55 µM)		> 64 µg/mL	> 64 µg/mL	> 64 µg/mL	> 64 µg/mL	
CCCCCCCCCCCCCCCC(=O)N(C)[C@@H](CO)CC(=O)N[C@@H](C)C(=O)NCC(=O)N(C)[C@@H]1C(=O)N[C@@H](C)C(=O)N[C@H](C(=O)O)Cc2ccc(O)c(c2)-c2cc1ccc2O	4 µg/mL (≈ 4.47 µM)	16 µg/mL (≈ 17.9 µM)			8 µg/mL (≈ 8.94 µM)	64 µg/mL (≈ 71.5 µM)	> 64 µg/mL	> 64 µg/mL	
CCCCCCCCCCCCCCCC(=O)N(C)[C@@H](CO)C(=O)NCC(C)C(=O)NCC(=O)N(C)[C@@H]1C(=O)N[C@@H](C)C(=O)N[C@H](C(=O)O)Cc2ccc(O)c(c2)-c2cc1ccc2O (mixture of isomers)	8 µg/mL		8 µg/mL	16 µg/mL	16 µg/mL	> 64 µg/mL	> 64 µg/mL	> 64 µg/mL	
CCCCCCCCCCCCCCC(C)C(=O)N[C@@H](C)C(=O)NCC(=O)N(C)[C@@H]1C(=O)N[C@@H](C)C(=O)N[C@H](C(=O)O)Cc2ccc(O)c(c2)-c2cc1ccc2O (mixture of isomers)	8 µg/mL				> 64 µg/mL	> 64 µg/mL	> 64 µg/mL	> 64 µg/mL	
CCCCCCCCc1ccc(-c2ccc(C(=O)N(C)[C@H](CO)C(=O)N[C@H](C)C(=O)NCC(=O)N(C)[C@@H]3C(=O)N[C@@H](C)C(=O)N[C@H](C(=O)O)Cc4ccc(O)c(c4)-c4cc3ccc4O)cc2)cc1	1 µg/mL (≈ 1.07 µM)	8 µg/mL (≈ 8.56 µM)	1 µg/mL (≈ 1.07 µM)		16 µg/mL (≈ 17.1 µM)	16 µg/mL (≈ 17.1 µM)	> 64 µg/mL	> 64 µg/mL	
C[C@@H]1NC(=O)[C@@H](N(C)C(=O)CNC(=O)[C@@H](C)NC(=O)[C@@H](CO)N(C)C(=O)Cc2ccc3ccccc3c2)c2ccc(O)c(c2)-c2cc(ccc2O)C[C@@H](C(=O)O)NC1=O	> 64 µg/mL					> 64 µg/mL	> 64 µg/mL	> 64 µg/mL	
CCCCCCCCCCCCCCCC(=O)N(C)[C@H](CO)C(=O)N[C@H](C)C(=O)NCC(=O)N(C)[C@@H]1C(=O)N[C@@H](C)C(=O)N[C@H](C(=O)O)Cc2ccc(O)c(c2)-c2cc1ccc2O [ARYLOMYCIN C16]	0.5 µg/mL (≈ 0.567 µM)			8 µg/mL (≈ 9.08 µM)		> 64 µg/mL	> 64 µg/mL	> 64 µg/mL	16 µg/mL (≈ 18.2 µM)
C[C@@H]1NC(=O)[C@@H](N(C)C(=O)CNC(=O)[C@@H](C)NC(=O)[C@@H](CO)N(C)C(=O)Cc2ccc(-c3ccccc3)cc2)c2ccc(O)c(c2)-c2cc(ccc2O)C[C@@H](C(=O)O)NC1=O	32 µg/mL (≈ 38.2 µM)				> 64 µg/mL	> 64 µg/mL	> 64 µg/mL	> 64 µg/mL	
CC(C)CCCCCCCCC(=O)N(C)[C@H](CO)C(=O)N[C@H](C)C(=O)NCC(=O)N(C)[C@@H]1C(=O)N[C@@H](C)C(=O)N[C@H](C(=O)O)Cc2ccc(O)c(c2)-c2cc1ccc2O [ARYLOMYCIN A2]									16 µg/mL (≈ 19.4 µM)
CCCCCCCC(=O)N(C)[C@H](CO)C(=O)N[C@H](C)C(=O)NCC(=O)N(C)[C@@H]1C(=O)N[C@@H](C)C(=O)N[C@H](C(=O)O)Cc2ccc(O)c(c2)-c2cc1ccc2O						> 64 µg/mL	> 64 µg/mL	> 64 µg/mL	
CCCCCCCCCCc1ccc(C(=O)N(C)[C@H](CO)C(=O)N[C@H](C)C(=O)NCC(=O)N(C)[C@@H]2C(=O)N[C@@H](C)C(=O)N[C@H](C(=O)O)Cc3ccc(O)c(c3)-c3cc2ccc3O)cc1	0.5 µg/mL (≈ 0.564 µM)	4 µg/mL (≈ 4.51 µM)	2 µg/mL (≈ 2.25 µM)	16 µg/mL (≈ 18 µM)	16 µg/mL (≈ 18 µM)	32 µg/mL (≈ 36.1 µM)	> 64 µg/mL	> 64 µg/mL	
C[C@@H]1NC(=O)[C@@H](N(C)C(=O)CNC(=O)[C@@H](C)NC(=O)[C@@H](CO)N(C)C(=O)c2ccc(-c3ccccc3)cc2)c2ccc(O)c(c2)-c2cc(ccc2O)C[C@@H](C(=O)O)NC1=O	64 µg/mL (≈ 77.8 µM)				> 64 µg/mL	> 64 µg/mL	> 64 µg/mL	> 64 µg/mL	
CCCCCCc1ccc(-c2ccc(C(=O)N(C)[C@H](CO)C(=O)N[C@H](C)C(=O)NCC(=O)N(C)[C@@H]3C(=O)N[C@@H](C)C(=O)N[C@H](C(=O)O)Cc4ccc(O)c(c4)-c4cc3ccc4O)cc2)cc1	0.5 µg/mL (≈ 0.551 µM)	8 µg/mL (≈ 8.82 µM)	1 µg/mL (≈ 1.1 µM)		32 µg/mL (≈ 35.3 µM)	64 µg/mL (≈ 70.6 µM)	> 64 µg/mL	> 64 µg/mL	
CCCCCCCCCCCCCCCC(=O)N[C@@H](CO)C(=O)N(C)[C@@H](C)C(=O)N(C)CC(=O)N(C)[C@@H]1C(=O)N[C@@H](C)C(=O)N[C@H](C(=O)O)Cc2ccc(O)c(c2)-c2cc1ccc2O	> 64 µg/mL					> 64 µg/mL	> 64 µg/mL	> 64 µg/mL	
CCc1ccc(-c2ccc(C(=O)N(C)[C@H](CO)C(=O)N[C@H](C)C(=O)NCC(=O)N(C)[C@@H]3C(=O)N[C@@H](C)C(=O)N[C@H](C(=O)O)Cc4ccc(O)c(c4)-c4cc3ccc4O)cc2)cc1	8 µg/mL (≈ 9.4 µM)	64 µg/mL (≈ 75.2 µM)	16 µg/mL (≈ 18.8 µM)		> 64 µg/mL	> 64 µg/mL	> 64 µg/mL	> 64 µg/mL	
